Legend:
C57BL/6J mice = test: Chronic intermittent ethanol (CIE) exposure mouse model of ethanol dependence; type: in vivo
Experimental: Briefly, mice were divided into test (ethanol dependent) and control (non-ethanol dependent) groups. Mice in the former group were exposed to chronic intermittent ethanol (CIE) vapor (16 hr/day×4 days), and then forced to abstain from alcohol for 72 hours. Mice were then permitted access to ethanol for 2 h/day for a 5-day test period. This pattern of weekly CIE exposures followed by 5-day test periods was repeated for 9 cycles. Mice in the control group were treated in the same manner, except these animals were exposed to air rather than ethanol vapors. Mice from both groups were further divided into four sub-groups with animals receiving 0 mg/Kg, 3 mg/Kg, 6 mg/Kg or 12 mg/Kg dose of ibudilast.
In a separate study, adult male C57BL/6J mice were used to evaluate ibudilast as a therapeutic for the treatment of alcohol dependence. Two groups of mice were used for the study. Mice in the first group were trained to drink ethanol using a 2 h/day free-choice (15% v/v ethanol) drinking procedure (ethanol dependent (EtOH) mice), while mice in the second group were provided water and served a control (ethanol nondependent (CTL)) mice. Both the ethanol dependent and ethanol non-dependent groups had equal number of mice (N=37-38/group).
Mice in the alcohol dependent group were then exposed to chronic intermittent ethanol (CIE) vapors for 16 hr/day over four days. After a 72 hours forced abstinence period, the ethanol dependent mice were again permitted access to ethanol for 2 hours each day over a 5 consecutive test days. This pattern of chronic intermittent ethanol vapor exposure for four consecutive days followed by forced abstinence and a five day ethanol access test period was repeated for 9 cycles. Mice in the control (CTL) group were treated in a similar manner except that air was used in the inhalation chambers in place of ethanol vapors.
Both control and ethanol dependent mice received subcutaneous (s.c.) injections of the vehicle at 9 hours and 1 hour prior to the start of daily drinking sessions during Test Cycles 4, 5 and 6 to acclimate the animals to handling and administration of injections.
At the end of test cycle 6, mice in the ethanol dependent group and the control group were separated into four sub-groups with animals receiving one of four doses of ibudilast—0 mg/Kg, 3 mg/Kg, 6 mg/Kg or 12 mg/Kg during Test Cycles 7 and 8. Each sub-group contained 9-10 mice (N=9-10/group). The dose of ibudilast was increased during Test Cycle 9 with ethanol dependent and control mice receiving one of the following four doses of ibudilast—0 mg/Kg, 6 mg/Kg, 12 mg/Kg, or 18 mg/Kg. Thus, mice previously receiving a dose of […] were administered ibudilast at a dose of 18 mg/Kg during Test Cycle 9.

[1] = system: non-treatment-seeking individuals with AUD; test: Phase 1b study: daily alcohol craving (AUQ); type: in vivo, human; details: 50 mg BID; over the course of the study; p<0.05; FIG. 4
Experimental: Twenty four non-treatment-seeking individuals with AUD were treated with ibudilast (50 mg BID) and placebo (PBO). Participants completed two alcohol IV challenges, one after taking IBUD for 6 days and one after taking matched PBO for 6 days with a 5-10 day washout period between the study drug conditions. Ibudilast was obtained in the form of capsules containing a delayed-release 10 mg formulation. Matching capsules of the placebo also were obtained. Each participant visited the Clinical and Translational Research Center (CTRC) during on Days 1-5 of each medication condition during which they came in for daily morning visits with the study nurse to take the morning study medication under direct observation and took home the evening study medication. The participants stayed overnight on Day 6 and were discharged on Day 7. […]
(§1) The study comprised a treatment group and a placebo group and each participant completed a daily assessment questionnaire to address changes in mood, withdrawal effects, alcohol cravings, and address issues pertaining to other side effects. […] Following the intravenous alcohol challenge, participants were monitored for 24 hours and then discharged. Following a 5-10 day washout period study participants were readmitted to the CTRC where they received the opposite treatment (IBUD or PBO) for the second part of the study.

[2] = system: non-treatment-seeking individuals with AUD; test: Phase 1b study: safety and tolerability; type: in vivo, human
Experimental: A Phase 1b laboratory study was conducted to determine the safety, tolerability, and initial efficacy of ibudilast (50 mg BID) in humans as a potential AUD therapeutic agent.
To address each of the above mentioned specific aims, a randomized, crossover, double-blind, placebo-controlled study was conducted to determine the safety, tolerability, and efficacy of ibudilast in individuals with current AUD. Participants were between the ages of 21 and 65 years; met the DSM-5 diagnostic criteria for AUD; reported drinking at least 48 standard drinks in a 30-day period, during the 90 days before enrollment; and were non-treatment seeking alcohol dependent individuals who consented to an inpatient stay at a medical facility for part of the study.
Twenty four non-treatment-seeking individuals with AUD were treated with ibudilast (50 mg BID) and placebo (PBO). Participants completed two alcohol IV challenges, one after taking IBUD for 6 days and one after taking matched PBO for 6 days with a 5-10 day washout period between the study drug conditions. Ibudilast was obtained in the form of capsules containing a delayed-release 10 mg formulation. Matching capsules of the placebo also were obtained. Each participant visited the Clinical and Translational Research Center (CTRC) during on Days 1-5 of each medication condition during which they came in for daily morning visits with the study nurse to take the morning study medication under direct observation and took home the evening study medication. The participants stayed overnight on Day 6 and were discharged on Day 7. During the daily visits to the CTRC, the study nurse collected vital signs, asked about side effects in an open-ended fashion and used the Systematic Assessment for Treatment Emergent Events (SAFTEE).
as §1, with “effects. Thus, non-treatment seeking alcohol dependent individuals were treated with ibudilast 50 mg (5×10 mg capsules) twice daily (BID) or placebo (PBO).” for “effects.”
Breath alcohol content (BrAC) was monitored every 3 to 5 minutes during infusion until target BrAC's of 0.02 g·dl, 0.04 g·dl, 0.06 g·dl, and 0.08 g·dl were obtained, following which infusion rates were reduced to half the original rate to maintain stable BrAC levels during the testing phase. The following parameters were assessed prior to intravenous alcohol challenge and again at each target BrAC: (1) Biphasic Alcohol Effects Scale (BAES) to obtain a reliable and valid measure of alcohol's stimulant and sedative effects; (2) Alcohol Urge Questionnaire (AUQ)—an 8-item scale where subjects rate their craving for alcohol at the present moment, which is appropriate for examining the level of the urge to drink alcohol; (3) Alcohol Ratings Scale, which captures “liking” and “wanting” of alcohol”; (4) The Profile of Mood States (POMS; McNair 1971) which was used to record positive and negative mood states; and (5) Heart Rate and Blood Pressure levels measure at baseline and at each target level of BrAC.

CC(C)C(=O)c1c(C(C)C)nn2ccccc12 [ibudilast, Ibudilast]
ethanol intake of alcohol dependent mice vs control group counterparts (C57BL/6J mice; 6 mg, Test Cycle 9, p<0.05): consumed significantly more ethanol
difference in ethanol intake between alcohol dependent and control mice (C57BL/6J mice; 12 mg/Kg and 18 mg/Kg, Test Cycle 9): no significant difference
reduction of ethanol intake, alcohol dependent vs control mice (Group x Dose interaction) (C57BL/6J mice; 12 mg/Kg and 18 mg/Kg, Test Cycle 9, p<0.01): more effective at reducing ethanol intake in alcohol dependent mice than control mice
ethanol intake (C57BL/6J mice; 12 mg/Kg s.c., alcohol dependent mice, before Test Cycle 8 (FIG. 2)): reduced ethanol in alcohol dependent mice
ethanol consumption relative to vehicle (C57BL/6J mice; 12 mg/Kg, Test Cycle 8, both alcohol dependent and control mice, p<0.05): reduced ethanol consumption to a greater extent
concurrent water intake (C57BL/6J mice; associated with decreased ethanol intake): significant increases
ethanol intake of test (ethanol dependent) group vs control group (C57BL/6J mice; at the higher doses (FIG. 2)): below those for mice in the control group
basal, daily alcohol craving (AUQ) [1]: significantly decreased
dose reductions during the course of the study ([2]; 50 mg BID): no dose reductions
drop-outs for adverse event-related reasons ([2]; 50 mg BID): No subjects dropped out
tolerability and safety ([2]; 50 mg BID oral (20 mg BID days 1-2), 6 days, humans with AUD): well tolerated and safe
heart rate or blood pressure in the context of alcohol consumption ([2]; 50 mg BID, IV alcohol, across the BrACs, p's>=0.35): did not affect
headache, reported adverse drug effect ([2]; 50 mg BID, vs 0 during placebo, p<0.05): 4 instances

Source: patent US20190151294A1, “TREATMENT OF ALCOHOLISM AND DEPRESSION AND/OR DYSPHORIC MOOD USING IBUDILAST” (MEDICINOVA, INC., priority 2016, published 2019)
